Consider seven compounds from paper PMC6017406, “Synthesis and Physicochemical Evaluation of Entecavir-Fatty Acid Conjugates in Reducing Food Effect on Intestinal Absorption” (Molecules : A Journal of Synthetic Chemistry and Natural …, 2018).

Converted amounts (≈) assume the structure as drawn. Like-named read-outs stand apart in the source and are kept apart here. Bounds are passed on as bounds.

Data set [1] can be described thus: Equilibrium solubility in biorelevant media. Format: physicochemical. To be noted: for solubility thermodynamic at 3 days: thermodynamic from solid, mean ± SD (n = 3). How it is done:
The equilibrium solubilities of lipidic prodrugs in biorelevant media such as FaSSGF, FeSSGF, FaSSIF, and FeSSIF [32, 33] were assessed. FaSSGF was prepared with 0.08 mM of sodium taurocholate, 0.02 mM of lecithin, and 34.2 mM of NaCl in 1000 mL of distilled water (pH 1.6). FaSSIF was prepared with 3 mM of sodium taurocholate, 0.2 mM of lecithin, 19.1 mM of malate, 68.62 mM of NaCl, and 34.8 mM of NaOH in 1000 mL of distilled water (pH 6.5, osmolality: 270 mOsm∙kg^−1). FeSSGF was prepared with 230.0 mM of NaCl, 17.1 mM of acetic acid, and 29.75 mM of sodium acetate, in 1000 mL of mixture of milk (full fat 3.5%) and distilled water (pH 5.0, osmolality: 400 mOsm∙kg^−1). FeSSIF was prepared with 10 mM of sodium taurocholate, 2 mM of lecithin, 5 mM of glyceryl monooleate, 0.8 mM of sodium oleate, 55.0 mM of malate, 125.5 mM of NaCl, and 81.6 mM of NaOH in 1000 mL of distilled water (pH 5.8, osmolality: 390 mOsm∙kg^−1).
An excess amount of drug (500 mg) was added to biorelevant media in a scintillation vial. Drug suspensions were sonicated for 30 min and then shaken at 37 °C for 3 days using a shaking incubator. Samples were then centrifuged at 13,000 rpm for 10 min and the supernatant was appropriately diluted with mobile phase. The concentration of EV-FA in the medium was analyzed using HPLC as described above.

Data set [2] is described as follows: Hydrolysis in simulated gastric fluid (pH 1.2). The data set is classed as physicochemical. The following applies: simulated gastric fluid pH 1.2, 37 °C, after 12 h, 20 μg/mL. How it is done:
To estimate the chemical stability of these synthesized ester prodrugs in the stomach, their hydrolysis behavior was evaluated in simulated gastric fluid (pH 1.2). Each compound (10 mg) was dissolved in ethanol (10 mL) and then serially diluted with simulated gastric fluid at a drug concentration of 20 μg/mL. […]

A short description of data set [3]: In vitro dissolution test in biorelevant media (USP 29 paddle method). Format: physicochemical. How it is done: The United States Pharmacopeia 29 paddle method was used to assess the release profile of EV-C12 powder using a VK 7000 dissolution tester (Varian Medical Industries, Palo Alto, CA, USA). The EV-FA powder equivalent to 0.5 mg of the parent compound was immersed in 900 mL of biorelevant media maintained at 37 °C ± 0.1 °C at a paddle speed of 50 rpm. At fixed time intervals, aliquots (about 4 mL) were drawn and centrifuged at 13,000 rpm for 10 min. An equal volume of the test medium pre-warmed at 37 °C ± 0.1 °C was used for immediate replacement. The supernatant was appropriately diluted with methanol and the drug concentration in the supernatant was assayed by HPLC, as described earlier.

Details of data set [4]: method as in PMID 27503646. To be noted: cited from earlier work.
Details of data set [5]: method as in earlier work. The following applies: oral 0.5 mg with high-fat meal (945 kcal, 54.6 g fat); cited from earlier work.
On the set-up of data set [6]: method as in PMID 14498759. To be noted: humans; cited from earlier work.
Where [7] appears, read: fassgf or other biorelevant, FaSSGF pH 1.6, 37 °C, read-out: Equilibrium solubility FaSSGF.
[8] abbreviates: fassgf or other biorelevant, FeSSGF pH 5.0, 37 °C, read-out: Equilibrium solubility FeSSGF.
[9] abbreviates: FaSSIF pH 6.5, 37 °C, read-out: Equilibrium solubility FaSSIF.
[10] abbreviates: FeSSIF pH 5.8, 37 °C, read-out: Equilibrium solubility FeSSIF.
Setting [11] is: all biorelevant media, 37 °C, 50 rpm.

For the compound `C=C1[C@H](COC(=O)CCCCC)[C@@H](O)C[C@@H]1n1cnc2c(=O)[nH]c(N)nc21` [EV-C6, (1R,3S,5S)-3-(2-Amino-6-oxo-1H-purin-9(6H)-yl)-5-hydroxy-2-methylenecyclopentyl)methyl hexanoate], the solubility thermodynamic at 3 days is 4.84 ± 0.5 µg/mL (≈ 12.9 µM) in data set [1] (setting [7]), 24.9 ± 1.4 µg/mL (≈ 66.3 µM) in data set [1] (setting [8]), 5.54 ± 0.6 µg/mL (≈ 14.8 µM) in data set [1] (setting [9]) and 25.2 ± 2.3 µg/mL (≈ 67.1 µM) in data set [1] (setting [10]). In data set [2], the Hydrolyzed percentage was 59.1%.

In general, solubility refers to how much of the substance goes into solution per volume. The pKa is the negative logarithm of the acid dissociation constant. A word on the Solubility: it is the concentration that dissolves in the medium under given conditions. One may read the logP as a log measure of how a compound divides between an organic and an aqueous phase. Take `C=C1[C@H](CO)[C@@H](O)C[C@@H]1n1cnc2c(=O)nc(N)[nH]c21` [EV, 2-amino-9-[(1S,3R,4S)-4-hydroxy-3-(hydroxymethyl)-2-methylidenecyclopentyl]-3H-purin-6-one, reference compound]: in data set [1] (biorelevant media (FaSSGF, fassgf or other biorelevant, thermodynamic from solid), FaSSGF, FaSSIF, FeSSGF, FeSSIF, 37 °C, read-out: Aqueous solubility in all media tested), the solubility at 3 days was above 1600 µg/mL. The solubility thermodynamic at 3 days in data set [1] (setting [7]) amounted to 8940 ± 92 µg/mL (≈ 32200 µM); in data set [1] (setting [8]) it was 2152 ± 13 µg/mL (≈ 7760 µM); in data set [1] (setting [9]), 1620 ± 23 µg/mL (≈ 5860 µM); in data set [1] (setting [10]), 2240 ± 52 µg/mL (≈ 8080 µM). Moreover, the “Time to complete release” value in data set [3] (all biorelevant media (FaSSGF, FaSSIF, FeSSGF, FeSSIF), 37 °C, 50 rpm) is listed as at most 15 min. Further, the pKa in data set [4] is given as 10.5. In data set [4] (distilled water at 25 °C), the Solubility is 2400 µg/mL (≈ 8660 µM). Besides, the logP in data set [4] (pH 4 to 10) is given as −1.110. For the same compound, the “Decrease in maximum drug concentration in plasma” value in data set [5] was 44–46%.

Regarding `C=C1[C@H](COC(=O)CCCCCCCCCCC)[C@@H](O)C[C@@H]1n1cnc2c(=O)[nH]c(N)nc21` [EV-C12, ((1R,3S,5S)-3-(2-Amino-6-oxo-1H-purin-9(6H)-yl)-5-hydroxy-2-methylenecyclopentyl)methyl dodecanoate], the solubility thermodynamic at 3 days in data set [1] (setting [7]) was determined as 4.82 ± 0.2 µg/mL (≈ 10.5 µM); in data set [1] (setting [8]) it was 76.6 ± 4 µg/mL (≈ 167 µM); in data set [1] (setting [9]), 6.5 ± 0.2 µg/mL (≈ 14.1 µM); in data set [1] (setting [10]), 78.8 ± 7.7 µg/mL (≈ 171 µM). In data set [2], this compound returned a Hydrolyzed percentage of 22.5%. For the same compound, the “Percent released within 30 min” value in data set [3] (setting [11]) is “more than 50%”. Moreover, the “Percent released/dissolved within 2 h” value in data set [3] (setting [11]) was “more than 90%”. Further, the “Concentration of EV in dissolution medium formed by hydrolysis of the lipidic compound” value in data set [3] (all media) was “less than 1%”. In addition, the “Release rate constant (Hixon-Crowell cube-root model)” value in data set [3] (fourth medium listed (presumably FeSSIF), r^2 = 0.933) amounted to 0.053 mg^1/3/h; in data set [3] (second medium listed (presumably FaSSIF), r^2 = 0.914), 0.036 mg^1/3/h; in data set [3] (third medium listed (presumably FeSSGF), r^2 = 0.879) it was 0.048 mg^1/3/h.

As for `CC(C)(C)C(=O)OCOP(=O)(COCCn1cnc2c(N)ncnc21)OCOC(=O)C(C)(C)C` [adefovir dipivoxil], the Oral bioavailability in data set [6] was 59%.

Turning to `C=C1[C@H](COC(=O)CCCCCCC)[C@@H](O)C[C@@H]1n1cnc2c(=O)[nH]c(N)nc21` [EV-C8, ((1R,3S,5S)-3-(2-Amino-6-oxo-1H-purin-9(6H)-yl)-5-hydroxy-2-methylenecyclopentyl)methyl octanoate], the solubility thermodynamic at 3 days in data set [1] (setting [7]) is 4.74 ± 0.3 µg/mL (≈ 11.7 µM); in data set [1] (setting [8]), 38.2 ± 1.5 µg/mL (≈ 94.7 µM); in data set [1] (setting [9]), 5.74 ± 0.3 µg/mL (≈ 14.2 µM); in data set [1] (setting [10]), 36.7 ± 1.2 µg/mL (≈ 91 µM). Moreover, the Hydrolyzed percentage in data set [2] is 46.2%.

In the case of `C=C1[C@H](COC(=O)CCCCCCCCC)[C@@H](O)C[C@@H]1n1cnc2c(=O)[nH]c(N)nc21` [EV-C10, ((1R,3S,5S)-3-(2-Amino-6-oxo-1H-purin-9(6H)-yl)-5-hydroxy-2-methylenecyclopentyl)methyl decanoate], the solubility thermodynamic at 3 days in data set [1] (setting [7]) worked out at 4.41 ± 0.1 µg/mL (≈ 10.2 µM); in data set [1] (setting [8]), 61.9 ± 3.2 µg/mL (≈ 143 µM); in data set [1] (setting [9]), 6.47 ± 0.6 µg/mL (≈ 15 µM); in data set [1] (setting [10]), 66.6 ± 4.4 µg/mL (≈ 154 µM). This compound gave a Hydrolyzed percentage in data set [2] of 44.4%.

With `Nc1ncnc2c1ncn2CCOCP(=O)(O)O` [hydrophilic parent compound], the Oral bioavailability in data set [6] was 12%.
